Source: patent US8592421B2, “Cyclic bioisosters of purine system derivatives and a pharmaceutical composition based thereon” (priority 2003, dated 2013)

Key:
[1] = Chronic toxicity of suppositories: indexes of urine; type: in vivo, rats; conditions: rats, suppositories rectal, 1 month after administration
Experimental: The experiments were conducted on inbred rats.

[2] = Morphine abstinence model: thymus condition (mass, nitrites); type: in vivo, rats; conditions: for Nitrites in thymus supernatant: control 0.331 ± 0.041; for Thymus mass: control 230 ± 14
Description: The spectrometric method is based the reaction of nitrites with the Griss reagent (a mixture of 2% solution of sulfanilamide and 0.2% N-(1-naphthyl)ethylene diamine. At the first step the nitrite reacts with sulfanilamide with formation of diazonium salt, and then with the second component to form azo dye with an adsorption maximum at 540 nm. For reduction of nitrates into nitrites, a fermentative method was used with bacterial reductase nitrate (Grisham M. B. et al., 1995). The samples of plasma and supernathant of the liver deproteinizated at 100° C. for 5 minutes incubated for 30 minutes at 37° C. in 50.0 mM of HEPES pH 7.4 in the presence of 0.2 unit/ml of Aspergillus reductase nitrate, 5.0 mkM of FAD and 0.1 mM of NAD-Ph. At the end of the reaction lactate dehydrogenase and pyruvate were added for isolation of NAD-Ph interfering with the Griss reaction. Then the Griss reagent was added and after 10-minute incubation the light absorption of the samples was measured at 540 nm. To amount of NOX^− was calculated using sodium nitrate as a standard.
The effect of the compounds according to the invention on the condition of the thymus of the rats was also investigated: a control group, an experimental group of morphinized animals and an experimental group of animals were first morphinized and then injected with the compounds according to the invention. The experiment was carried out similarly to that described above.

[3] = Chronic toxicity of suppositories: biochemical indexes of blood serum; type: in vivo, rats; conditions: male rats, suppositories, 1 month; for Cholesterol in blood serum: control 3.02 ± 0.08; for Urea in blood serum: control 8.44 ± 0.60; for Glucose in blood serum: control 9.76 ± 0.15; for ALT in blood serum: control 11.33 ± 1.96; for AST in blood serum: control 19.13 ± 1.02; for Bilirubin in blood serum: control 35.93 ± 2.19; for Creatinine in blood serum: control 40.23 ± 2.84; for Alkalinous phosphatase in blood serum: control 40.74 ± 1.57; for Total protein in blood serum: control 94.89 ± 6.67;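 as to all read-outs here: inbred rats dosed rectally with softened suppositories, controls given matching volumes of sterile medical liquid paraffin, serum sampled one month into a two-month dosing course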
Experimental: Two doses of preparations used in the experiments: 50 mg/kg and 500 mg/kg. Before the administration, the suppositories were softened by heating in a glass water bath at a temperature of 38-39° C., the soft mass was collected in tuberculin syringe in a volume of 1 ml, a needle with oliva was attached to the syringe, and the preparatory mass was introduced into the rectum of the animal for a depth of 1.5-2.0 cm. The animals of the control group were administered with sterile medical liquid paraffin in a volume corresponding to the volume of the investigated suppository. A complete course of administration of drugs to the animals was two months. A complex of laboratory diagnostic investigations was carried out one month after the beginning of the administration of the preparation to the animal—in a middle of the course (8 animals), two months after ending the course (8 animals) and three months after ending the recovery period of one month (8 animals). The mass of the body of the rats in the first month of administration of the preparation was determined weekly, and then once in two weeks. On the basis of the dynamics of an index of the mass of the animal body, the volume of preparation being administered was corrected taking into account the test dose.

plasma hemostasis [4] = experiment: Partial activated thromboplastin time (PATT) after intravenous administration; type: in vivo, rabbit
Experimental: (§1) The static parameters of the blood and plasma coagulation (partial activated thromboplastin time, thrombin time, maximum coagulation activity (test for auto coagulation) were determined using the Behnk Electronic coagulometer (Germany). The operating principle of this instrument is based on the fact that the formed blood clot breaks the contacts of the pulse counter in the flask-pin circuit, said pin permanently oscillating in a vertical plane. The moment of formation of the clot is registered by stopping the stop watch hand.
(§2) The measurements were effected at a constant temperature of 37° C. maintained by a temperature control unit.

plasma hemostasis [5] = experiment: Autocoagulation test (coagulating activity A) after intravenous administration; type: in vivo, rabbit
Experimental: The investigations were performed on 72 rabbits of the “Chinchilla” breed with a mass of 2.5±0.3 kg, who were administered which solutions of compounds 2, 15, 21, 37 in doses of 15, 30 and 60 mg/kg intravenously. The experiments included the thrombin-test (series No. 7300) and the coagulability-test (series No. 5000) purchased from the scientific-and-production association (SPA) “Renam”, thromboplastin (series No. 240600) and calcium chloride purchased from the SPA “MedioLab”
as §1, §2
Compounds 2, 15, 21, 37 according to the invention at a concentration of 15, 30 and 60 mg/kg were intravenously administered to the above experimental animals and their blood samples were taken off 15, 30, 60 and 120 minutes after the administration.
Added to 0.2 ml of plasma obtained by centrifuging citrate blood at 1500 rev/min within 10 minutes was a glycosylate-calcium mixture (2.0 ml 0.222% CaCl2+0.1 ml of investigated citrate blood) 4, 6, 8, 10 minutes after the preparation of this mixture and the time of coagulation in the sample was determined.
The obtained results in seconds were translated in factors of coagulating activity A in percent, which specify the state of both the coagulating and anticoagulating parts of the blood coagulating system. The results of the experiments are given in Table 7. • The effect of the compounds according to the invention on the values of coagulating activity A by the data of autocoagulation test with intravenous administration of the compounds to the rabbits

[6] = Administration of morphine and compound

With `Nc1cccc2c(=O)[nH][nH]c(=O)c12.[Na]` [Compound 15, sodium salt of 5-amino-benzo[d]-3H-pyridazine-1,4-dione] the “Bilirubin (urine)” value ([1]; dose 50 mg/kg) was <5 Mkmol/l, the “Glucose (urine)” value ([1]; dose 50 mg/kg) was <6 mmol/L and the “Ketone bodies (urine)” value ([1]; dose 50 mg/kg) was <1 mmol/L. The “Potassium (urine)” value ([1]; dose 50 mg/kg) was 5.28 ± 1.5 g/L, the “Protein (urine)” value ([1]; dose 50 mg/kg) was 0.71 ± 0.274 g/L and the “Sodium (urine)” value ([1]; dose 50 mg/kg) was 1.2 ± 0.4 g/L. For the same compound, the “Urea (urine)” value ([1]; dose 50 mg/kg) was 413 ± 128 mmol/L, the “Urobilinogen (urine)” value ([1]; dose 50 mg/kg) was <17 Mkmol/l and the “pH (urine)” value ([1]; dose 50 mg/kg) was 6.3 ± 0.4. For the same compound, the “Bilirubin (urine)” value ([1]; dose 500 mg/kg) was <5 Mkmol/l, the “Glucose (urine)” value ([1]; dose 500 mg/kg) was <6 mmol/L and the “Ketone bodies (urine)” value ([1]; dose 500 mg/kg) was <1 mmol/L. The “Potassium (urine)” value ([1]; dose 500 mg/kg) was 6.13 ± 1.6 g/L, the “Protein (urine)” value ([1]; dose 500 mg/kg) was 0.87 ± 0.24 g/L and the “Sodium (urine)” value ([1]; dose 500 mg/kg) was 0.64 ± 0.4 g/L. For the same compound, the “Urea (urine)” value ([1]; dose 500 mg/kg) was 485 ± 131 mmol/L, the “Urobilinogen (urine)” value ([1]; dose 500 mg/kg) was <17 Mkmol/l and the “pH (urine)” value ([1]; dose 500 mg/kg) was 6.2 ± 0.3. The “Nitrites in thymus supernatant” value ([2]; Administration of compounds) was 0.407 ± 0.02 nmol/mg of protein, the Thymus mass ([2]; Administration of compounds) was 298 ± 25 mg and the “Nitrites in thymus supernatant” value [2, 6] was 0.383 ± 0.02 nmol/mg of protein. For the same compound, the Thymus mass [2, 6] was 214 ± 12 mg, the “Cholesterol in blood serum” value ([3]; 50 mg/kg) was 2.01 ± 0.50 mmol/L and the “Urea in blood serum” value ([3]; 50 mg/kg) was 10.33 ± 0.51 Mkmol/l. The Glucose in blood serum ([3]; 50 mg/kg) was 10 ± 0.41 mM, the “ALT in blood serum” value ([3]; 50 mg/kg) was 7.63 ± 1.95 unit/l and the “AST in blood serum” value ([3]; 50 mg/kg) was 19.49 ± 2.90 unit/1. For the same compound, the “Bilirubin in blood serum” value ([3]; 50 mg/kg) was 43.07 ± 3.57 mmol/L, the “Creatinine in blood serum” value ([3]; 50 mg/kg) was 45.59 ± 2.68 mkmol/l and the “Alkalinous phosphatase in blood serum” value ([3]; 50 mg/kg) was 40.74 ± 6.78 unit/l. For the same compound, the “Total protein in blood serum” value ([3]; 50 mg/kg) was 90.22 ± 6.78 g/L, the “Cholesterol in blood serum” value ([3]; 500 mg/kg) was 2.30 ± 0.57 mmol/L and the “Urea in blood serum” value ([3]; 500 mg/kg) was 10.89 ± 0.73 Mkmol/l. For the same compound, the Glucose in blood serum ([3]; 500 mg/kg) was 10.7 ± 0.41 mM, the “ALT in blood serum” value ([3]; 500 mg/kg) was 9.48 ± 1.85 unit/l and the “AST in blood serum” value ([3]; 500 mg/kg) was 15.14 ± 1.58 unit/1. The “Bilirubin in blood serum” value ([3]; 500 mg/kg) was 40.69 ± 15.75 mmol/L, the “Creatinine in blood serum” value ([3]; 500 mg/kg) was 48.27 ± 12.29 mkmol/l and the “Alkalinous phosphatase in blood serum” value ([3]; 500 mg/kg) was 41.60 ± 2.26 unit/l. The “Total protein in blood serum” value ([3]; 500 mg/kg) was 71.56 ± 8.23 g/L, the “PATT, T” value (plasma hemostasis [4]; 15.0 mg/kg intravenously, after 15 minutes, control 37.0 ± 0.2) was 37.0 ± 0.1 s and the “PATT, T” value (plasma hemostasis [4]; 15.0 mg/kg intravenously, after 30 minutes, control 37.0 ± 0.2) was 37.0 ± 0.2 s. For the same compound, the “PATT, T” value (plasma hemostasis [4]; 15.0 mg/kg intravenously, after 60 minutes, control 37.0 ± 0.2) was 36.9 ± 0.1 s, the “PATT, T” value (plasma hemostasis [4]; 15.0 mg/kg intravenously, after 120 minutes, control 37.0 ± 0.2) was 37.0 ± 0.3 s and the “PATT, T” value (plasma hemostasis [4]; 30.0 mg/kg intravenously, after 15 minutes, control 33.3 ± 0.8) was 32.9 ± 0.8 s. The “PATT, T” value (plasma hemostasis [4]; 30.0 mg/kg intravenously, after 30 minutes, control 33.3 ± 0.8) was 32.1 ± 0.1 s, the “PATT, T” value (plasma hemostasis [4]; 30.0 mg/kg intravenously, after 60 minutes, control 33.3 ± 0.8) was 32.0 ± 0.2 s and the “PATT, T” value (plasma hemostasis [4]; 30.0 mg/kg intravenously, after 120 minutes, control 33.3 ± 0.8) was 32.0 ± 0.1 s. The “PATT, T” value (plasma hemostasis [4]; 60.0 mg/kg intravenously, after 15 minutes, control 32.5 ± 0.3) was 32.2 ± 0.1 s, the “PATT, T” value (plasma hemostasis [4]; 60.0 mg/kg intravenously, after 30 minutes, control 32.5 ± 0.3) was 32.2 ± 0.1 s and the “PATT, T” value (plasma hemostasis [4]; 60.0 mg/kg intravenously, after 60 minutes, control 32.5 ± 0.3) was 32.1 ± 0.2 s. The “PATT, T” value (plasma hemostasis [4]; 60.0 mg/kg intravenously, after 120 minutes, control 32.5 ± 0.3) was 32.2 ± 0.1 s, the “effect on the PATT” value (plasma hemostasis [4]; doses 15.0, 30.0, 60.0 mg/kg) was “do not affect the PATT” and the “coagulating activity A (autocoagulation test)” value (plasma hemostasis [5]; 15.0 mg/kg intravenously, after 15 minutes, control 85.6) was 82.3%. For the same compound, the “coagulating activity A (autocoagulation test)” value (plasma hemostasis [5]; 15.0 mg/kg intravenously, after 30 minutes, control 85.6) was 103.0%, the “coagulating activity A (autocoagulation test)” value (plasma hemostasis [5]; 15.0 mg/kg intravenously, after 60 minutes, control 85.6) was 89.0% and the “coagulating activity A (autocoagulation test)” value (plasma hemostasis [5]; 15.0 mg/kg intravenously, after 120 minutes, control 85.6) was 101.2%. For the same compound, the “coagulating activity A (autocoagulation test)” value (plasma hemostasis [5]; 30.0 mg/kg intravenously, after 15 minutes, control 70.0) was 100.3%, the “coagulating activity A (autocoagulation test)” value (plasma hemostasis [5]; 30.0 mg/kg intravenously, after 30 minutes, control 70.0) was 68.4% and the “coagulating activity A (autocoagulation test)” value (plasma hemostasis [5]; 30.0 mg/kg intravenously, after 60 minutes, control 70.0) was 106.6%. The “coagulating activity A (autocoagulation test)” value (plasma hemostasis [5]; 30.0 mg/kg intravenously, after 120 minutes, control 70.0) was 70.6%, the “coagulating activity A (autocoagulation test)” value (plasma hemostasis [5]; 60.0 mg/kg intravenously, after 15 minutes, control 65.9) was 74.4% and the “coagulating activity A (autocoagulation test)” value (plasma hemostasis [5]; 60.0 mg/kg intravenously, after 30 minutes, control 65.9) was 63.2%. For the same compound, the “coagulating activity A (autocoagulation test)” value (plasma hemostasis [5]; 60.0 mg/kg intravenously, after 60 minutes, control 65.9) was 64.4%, the “coagulating activity A (autocoagulation test)” value (plasma hemostasis [5]; 60.0 mg/kg intravenously, after 120 minutes, control 65.9) was 66.5% and the “effect on the coagulation activity according to the autocoagulation test” value (plasma hemostasis [5]; doses 15.0, 30.0, 60.0 mg/kg) was “have no effect on the coagulation activity”.
